1 compound from patent publication US10117431B2, “Compounds and methods for improving plant performance” (Los Alamos National Security, LLC, priority 2013, dated 2018) can be followed below.

SMILES strings stand for the structures.

What all share (assay type): in vivo
In assay [1] the test system is Alfalfa (variety Ladak) seeds. Briefly: Germination of treated alfalfa seeds on moist paper toweling. The settings on record: 3 days after initiation of germination, 65-75° F., control untreated 80%. As for the experimental part:
The desired treatment concentration of ketosuccinamate was added to an aqueous solution of 0.01% Tween 80 and the pH was set to neutral with KOH. The seeds were dipped in the solution to wet them and allowed to air dry before planting, a process that required less than 15 min. Alfalfa (variety Ladak) 3 days after initiation of germination on moist paper toweling at 65-75° F. the following percent germination was observed. Control untreated seeds: 80%, seeds treated with 0.1 mM ketosuccinamate: 88% and seeds treated with 1 mM ketosuccinamate: 93%. At least 30 seeds were used in each set.

For assay [2], the system named is Soybeans (Variety Viking). Briefly: Greenhouse seedling emergence, soybean. The settings on record: 1 mM seed treatment, 3 days after planting, controls 12 of 20. As for the experimental part: The desired treatment concentration of ketosuccinamate was added to an aqueous solution of 0.01% Tween 80 and the pH was set to neutral with KOH. The seeds were dipped in the solution to wet them and allowed to air dry before planting, a process that required less than 15 min. Seeds were planted in vermiculite, sand, peat moss (1:1:1) in the greenhouse and the seedling emergence was tracked. The moisture in the germination/growth substrate as maintained between 15-20% of saturation. The temperature in the house ranged from 72-82° F. Bradyrhizobium japonicum (commercial innoculum) was mixed into the substrate before planting. 3 days after planting the following seedling emergence was observed. Controls 12 of 20 had emerged from the soil. Ketosuccinamate (1 mM) treated 16 of 20 had emerged.

Assay [3] relates to Soybean (variety Viking) seeds. Put plainly: Germination of treated soybean seeds on moist paper toweling. The note with it: 10 mM seed treatment, 75-85° F. As for the experimental part: The desired treatment concentration of ketosuccinamate was added to an aqueous solution of 0.01% Tween 80 and the pH was set to neutral with KOH. The seeds were dipped in the solution to wet them and allowed to air dry before planting, a process that required less than 15 min. Soybean (variety Viking) 22 hr after treatment and initiation of germination on moist paper toweling at 75-85° F. the following germination was observed. 2 of the 20 controls had broken through the pericarp whereas 9 of the 20 ketosuccinamate (10 mM) treated seeds had broken through the pericarp. 24 hours after treatment 6 of the 20 controls had broken the pericarp and 12 of the 20 ketosuccinamate-treated seeds had broken the pericarp.

Assay [4] has as its system Alfalfa (Variety Ladak). Put plainly: Greenhouse seedling emergence, alfalfa. The settings on record: 1 mM seed treatment, 3 days after planting, control 58%. As for the experimental part: The desired treatment concentration of ketosuccinamate was added to an aqueous solution of 0.01% Tween 80 and the pH was set to neutral with KOH. The seeds were dipped in the solution to wet them and allowed to air dry before planting, a process that required less than 15 min. Seeds were planted in vermiculite, sand, peat moss (1:1:2) in the greenhouse and the seedling emergence was tracked. The temperature in the house ranged from 72-82° F. Sinorhizobium meliloti inoculum (commercial innoculum) was mixed into the substrate before planting. 3 days after planting, the following seedling emergence was observed. Control 58%; Ketosuccinamate (1 mM) treated 79%.

On to `NC(=O)CC(=O)C(=O)O` [ketosuccinamate, 4-amino-2,4-dioxobutanoic acid], for which the values for the percent germination in assay [1] (seeds treated with 0.1 mM) and in assay [1] (seeds treated with 1 mM) were 88% and 93%, respectively. In addition, the “seedling emergence, number of 20 that had emerged from the soil” value in assay [2] was 16. In addition, the “number of the 20 treated seeds that had broken through the pericarp” value in assay [3] (22 hr after treatment, controls 2 of the 20) was 9. The “number of the 20 treated seeds that had broken the pericarp” value in assay [3] (24 hours after treatment, controls 6 of the 20) is listed as 12. The seedling emergence in assay [4] was 79%.
